Source: patent US10940188B2, “Compounds and methods for treatment and prevention of Flavivirus infection” (priority 2016, dated 2021)

Experiments:
[1] = tested on: ZIKV production from SNB-19 cells; assay: Infectious ZIKV production from SNB-19 cells, focus-forming unit assay on Vero cells; format: cell-based, Zika virus; details: PRVABC59-ZIKV, SNB-19 supernatants on Vero cells, ZIKV-ENV stain; read-out: IC50 against ZIKV infection in human glioblastoma cell culture
Experimental: FIGS. 2A-1, 2A-2, 2B-1, 2B-2, 2C-1, 2C-2, 2D-1, 2D-2, 2D-3, 2E-1, 2E-2, and 2F. […] Screening of select compounds for antiviral activity against ZIKV infection was carried out. Glioblastoma SNB-19 cells were treated with indicated compound at 10×AC50 (determined in the primary caspase screen) for 1 hour prior to inoculation with FSS-13025 (at MOI=1). Cells were harvested 24 hours post infection and analyzed by Western blot for ZIKV-NS1 or GAPDH (FIGS. 2A-1 and 2A-2). Titration of PHA-690509 on glioblastoma cells for anti-ZIKV activity. Three strains of virus (FSS-13025, PRVABC59, and MR766; MOI=1) were tested. Shown are sample western blot images (FIG. 2B-1) and ImageJ quantification (FIG. 2B-2). Values represent mean±s.d. (n=3; ***P<0.001; One-way ANOVA). Titration of Emricasan on SNB-19 cells for anti-ZIKV activity was conducted similarly (FIGS. 2C-1 and 2C-2). Values represent mean±s.d. […] Sample western blot (FIG. 2D-2) and ImageJ quantification (FIG. 2D-3) are shown for infection with the PRVABC59 strain (MOI=1). Results for additional strains are shown in FIGS. 6A-F. Values represent mean±s.d. […] The concentration of NS1 in the medium of infected SNB-19 cells collected 24 hours post-infection was quantified by a ZIKV-NS1 ELISA kit (FIGS. 2E-1 and 2E-2). […] Cell culture supernatant was collected 24 hours after infection, and infectious virions were quantified for focus-forming units (FFU) using Vero cells. […] Curves represent best fits for calculating IC50 values, and the insets report the calculated IC50 value for each compound.
FIGS. 18A, 18B, 18C-1, 18C-2, 18D, 18E, 18F, 18G-1, and 18G-2. […] 24 hours post infection, supernatants from SNB-19 cells were titrated onto naïve vero cells plated in a monolayer in 96-well plates for infectious focus-forming unit assay as previously described and focus forming units quantified. […] Immunofluorescence (IF) staining (FIG. 18C-1) and quantification (FIG. 18C-2) of ZIKV positive SNB-19 cells following infection with one of three ZIKV strains and treatment with emetine at 0.01, 0.1, or 1 μM. […]
FIG. 21. […] IC50's calculated using graphpad PRISM software. […]

[2] = tested on: hNPCs infected with ZIKV PRVABC59; assay: hNPC proliferation after ZIKV infection (EdU); format: cell-based, human; details: PHA-690509 1 μM, Seliciclib 5 μM
Experimental: (§1) FIGS. 17A-17C. Analysis of potential toxicity of CDKis on human astrocyte viability and hNPC proliferation. Human iPSC-derived astrocytes (BJ line) were treated with each indicated compound (cpd) for 25 hours prior to cell viability analysis as measured in relative luciferase units for ATP production. Values represent mean+s.d. (n=3 cultures; ***P<0.001; **P<0.01; One-way ANOVA for comparison with the DMSO treatment). RLU: relative luminescence units. hNPCs were treated with saline, PHA-690509 (PHA, 1 μM) or Seliciclib (5 μM), 1 hour prior to ZIKV PRVABC59 infection (MOI=0.08). At 72 hours post infection, EdU (10 μM) was added to hNPCs and cells were cultured for additional 4 hours prior to fixation and staining for EdU and DAPI. Values represent mean+s.e.m. (n=3 cultures; ***P<0.001; One-way ANOVA for comparison with the mock treatment). Day 20 forebrain-specific brain organoids were treated with PHA-690509 (1 μM) or Seliciclib (5 μM) for 3 days and hNPC proliferation was evaluated by phospho-Histone 3 (PH3) expression within the ventricular zone. Values represent mean+s.e.m. (n=8 organoids; P>0.05; One-way ANOVA for comparison with the mock treatment).

[3] = tested on: forebrain-specific brain organoids; assay: hNPC proliferation in forebrain organoids (phospho-Histone 3), compound alone; format: cell-based, human; details: 3 days
Experimental: as §1

SMILES | IC50 [1] | rescue of ZIKV-induced reduction of hNPC proliferation [2] | effect of the treatment itself on hNPC proliferation [3]
CCCCCCCC(=O)Oc1ccc(Cl)cc1C(=O)Nc1ccc([N+](=O)[O-])cc1Cl [DK520] | < 3000 nM |  | 
CC[C@H](CO)Nc1nc(NCc2ccccc2)c2ncn(C(C)C)c2n1 [Seleciclib, Seliciclib] |  | partially rescued ZIKV-induced reduction of hNPC proliferation | minimal effect on hNPC proliferation in brain organoids
